Assay results: ChEMBL document CHEMBL3044794, “Antifungal activity of some tetranortriterpenoids” (2000)

How the values were obtained:
[1] = test system: Puccinia arachidis; assay: Antifungal activity against Puccinia arachidis in ground nut assessed as rust pustule count at 1 ug/cm'2 measured after 12 days from inoculation (reference value: 22.73 %); format: functional
[2] = test system: Puccinia arachidis; assay: Antifungal activity against Puccinia arachidis in ground nut assessed as rust pustule count at 10 ug/cm'2 measured after 12 days from inoculation; format: functional

SMILES: COC(=O)C1(O)C2C(C)(C)C(=O)C=C[C@]2(C)[C@H]2CC3[C@H](c4ccoc4)C[C@H]4O[C@@]34C[C@@]21C (stereo partly drawn) [METHYL ISOCEDRELONATE]
- inhibition (INH) [1]: 7.6%
- inhibition (INH) [2]: 2.3%

SMILES: CC(=O)O[C@@H]1C[C@H]2C(C)(C)C(=O)C=C[C@]2(C)[C@H]2CC[C@]3(C)C(=CC(=O)[C@H]3c3ccoc3)[C@@]21C [AZADIRADIONE]
- inhibition (INH) [1]: 75.7%
- inhibition (INH) [2]: 76.9%

SMILES: CC1(C)C(=O)C=C[C@@]2(C)C1C(O)(C(=O)O)[C@@]1(C)C[C@@]34O[C@@H]3C[C@@H](c3ccoc3)C4C[C@H]21 (stereo partly drawn) [ISOCEDRELONIC ACID]
- inhibition (INH) [1]: 36.9%
- inhibition (INH) [2]: 91.4%

SMILES: CC1(C)C(=O)CC[C@@]2(C)C1=C(O)C(=O)[C@]1(C)[C@@H]2CC[C@@]2(C)[C@H](c3ccoc3)C[C@H]3O[C@]321 [DIHYDROCEDRELONE]
- inhibition (INH) [1]: 42.6%
- inhibition (INH) [2]: 66.7%

SMILES: CC(=O)O[C@H](CC(=O)O)[C@]1(C)[C@H]2CC[C@@]3(C)[C@@H](c4ccoc4)OC(=O)[C@H]4O[C@]43[C@]2(C)C(=O)C[C@H]1C(C)(C)O [NOMILINIC ACID]
- inhibition (INH) [1]: 28.5%
- inhibition (INH) [2]: 34.2%

SMILES: CC(=O)OC1=C2C(C)(C)C(=O)CC[C@]2(C)[C@H]2CC[C@@]3(C)[C@H](c4ccoc4)C[C@H]4O[C@]43[C@]2(C)C1=O [DIHYDROCEDRELONEDIACETATE]
- inhibition (INH) [1]: 77.6%
- inhibition (INH) [2]: 87%

SMILES: CC1(C)O[C@H]2CC(=O)OC[C@]23[C@H]2CC[C@@]4(C)[C@@H](c5ccoc5)OC(=O)[C@H]5O[C@]54[C@]2(C)[C@H](O)C[C@@H]13 [LIMONOL]
- inhibition (INH) [1]: 37.9%
- inhibition (INH) [2]: 62.3%

SMILES: CC1(C)C(=O)C=C[C@@]2(C)C1=C(O)C(=O)[C@]1(C)[C@@H]2CC[C@@]2(C)[C@H](c3ccoc3)C[C@H]3O[C@]321 [CEDRELONE]
- inhibition (INH) [1]: 98.4%
- inhibition (INH) [2]: 93.4%

SMILES: CC1(C)O[C@H]2CC(=O)OC[C@]23[C@H]2CC[C@@]4(C)[C@H](c5ccoc5)OC(=O)[C@H]5O[C@]54[C@]2(C)C(=O)C[C@@H]13 [LIMONIN]
- inhibition (INH) [1]: 67.7%
- inhibition (INH) [2]: -15.7%
